Assay results as given in ChEMBL document CHEMBL3137667, “[Drug-induced liver injury; fourteenth updated edition of the bibliographic database of liver injuries and related drugs]” (Gastroenterol Clin Biol, 2004).

Tests used:
[1] = Highest frequency of moderate liver toxicity observed during clinical trials, expressed as a percentage. [column '% BIOL' in source]; conditions: human
[2] = Highest frequency of acute liver toxicity observed during clinical trials, expressed as a percentage. [column '% AIGUE' in source]; conditions: human
[3] = Presence of at least one case with successful reintroduction. [column 'REINT' in source]; conditions: human
[4] = Comments (NB not yet translated). [column 'COMMENTAIRES' in source]; conditions: human
[5] = Times to onset, minimal and maximal, observed in the indexed observations. [column 'DELAI' in source]; conditions: human
[6] = human, serum
[7] = human
[8] = human; remark: listed apart in the source
[9] = human; remark: listed apart in the source
[10] = human, serum, 4383 h
[11] = human; remark: listed apart in the source
[12] = human; remark: listed apart in the source
[13] = human; remark: listed apart in the source
[14] = human; remark: listed apart in the source
[15] = human; remark: listed apart in the source
[16] = human; remark: listed apart in the source
[17] = human, serum; remark: listed apart in the source
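Throughout, for Hepatotoxicity (association with vascular disease): count of indexed literature references reporting vascular liver injury in humans, e.g. peliosis hepatitis, hepatic veno-occlusive disease or Budd-Chiari syndrome.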
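Throughout, for Hepatotoxicity (benign tumour): value is a count of indexed literature references citing a benign tumour confirmed by histopathology.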
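Throughout, for Hepatotoxicity (choleostasis): human cholestatic liver injury, shown by histopathology or by peak ALT or AST elevation over alkaline phosphatase ratio below 2, value counts indexed literature reports.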
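Throughout, for Hepatotoxicity (chronic liver disease): chronic liver injury confirmed by histopathology or persistently raised serum aminotransferase activity beyond 6 months, value given as the count of indexed literature references.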
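Throughout, for Hepatotoxicity (cirrhosis): value is a count of indexed literature references reporting cirrhosis confirmed by histopathology.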
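Throughout, for Hepatotoxicity (cytolytic): human cytolytic liver injury, shown by histopathology or by a ratio above 5 of peak ALT or AST elevation to alkaline phosphatase elevation, value counts indexed references.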
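Throughout, for Hepatotoxicity (granulomatous hepatitis): value is a count of indexed literature references reporting granulomatous liver disease confirmed by histopathology.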
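Throughout, for Hepatotoxicity (malignant tumour): malignant tumour confirmed by histopathology, value gives the count of indexed literature references reporting it.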
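Throughout, for Hepatotoxicity (severe hepatitis): human clinical data: severe hepatitis, meaning potentially life-threatening liver failure or clinically observed cases, the value counts how many indexed literature references report it.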
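Throughout, for Hepatotoxicity (steatosis): steatosis confirmed by histopathology, value is the count of indexed references.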

CC(C)(C)NC(=O)[C@@H]1C[C@@H]2CCCC[C@@H]2CN1C[C@@H](O)[C@H](Cc1ccccc1)NC(=O)[C@H](CC(N)=O)NC(=O)c1ccc2ccccc2n1
Hepatotoxicity (moderate) ([1]; Liver): 44% | Hepatotoxicity (acute) ([2]; Liver): 12.5% | Hepatotoxicity (successful reintroduction) [3]: yes | Hepatotoxicity (comment) [4]: REACTIVATION_HVB | Hepatotoxicity (time to onset) [5]: < 1 day - 6 months | Hepatotoxicity (moderate) [6]: 7 | Hepatotoxicity (cytolytic) ([7]; Liver): 10 | Hepatotoxicity (choleostasis) ([8]; Liver): 0 | Hepatotoxicity (severe hepatitis) ([9]; Liver): 0 | Hepatotoxicity (chronic liver disease) [10]: 0 | Hepatotoxicity (cirrhosis) [11]: 0 | Hepatotoxicity (granulomatous hepatitis) ([12]; Liver): 0 | Hepatotoxicity (association with vascular disease) [13]: 0 | Hepatotoxicity (steatosis) [14]: 0 | Hepatotoxicity (malignant tumour) [15]: 0 | Hepatotoxicity (benign tumour) [16]: 0

Nc1cc([As]2[As](c3ccc(O)c(N)c3)[As](c3ccc(O)c(N)c3)[As](c3ccc(O)c(N)c3)[As]2c2ccc(O)c(N)c2)ccc1O.Nc1cc([As]2[As](c3ccc(O)c(N)c3)[As]2c2ccc(O)c(N)c2)ccc1O (stereo unspecified)
Hepatotoxicity (moderate) [1]: 0% | Hepatotoxicity (acute) [2]: 0% | Hepatotoxicity (successful reintroduction) [3]: yes | Hepatotoxicity (comment) [4]: CHOLESTASE_PROLONGEE CHOLANGITE | Hepatotoxicity (time to onset) [5]: 1 week - 1 year | Hepatotoxicity (moderate) [6]: 0 | Hepatotoxicity (acute) [17]: 6 | Hepatotoxicity (cytolytic) [7]: 1 | Hepatotoxicity (choleostasis) [8]: 1 | Hepatotoxicity (severe hepatitis) [9]: 1 | Hepatotoxicity (chronic liver disease) [10]: 0 | Hepatotoxicity (cirrhosis) [11]: 0 | Hepatotoxicity (granulomatous hepatitis) [12]: 0 | Hepatotoxicity (association with vascular disease) [13]: 0 | Hepatotoxicity (steatosis) [14]: 0 | Hepatotoxicity (malignant tumour) [15]: 0 | Hepatotoxicity (benign tumour) [16]: 0

CC(C)(C)NC(=O)[C@@H]1CN(Cc2cccnc2)CCN1C[C@@H](O)C[C@@H](Cc1ccccc1)C(=O)N[C@H]1c2ccccc2C[C@H]1O.O
Hepatotoxicity (moderate) ([1]; Liver): 8% | Hepatotoxicity (acute) ([2]; Liver): 9.1% | Hepatotoxicity (successful reintroduction) [3]: yes | Hepatotoxicity (comment) [4]: REACTIVATION_HVB/HVC LITHIASE | Hepatotoxicity (time to onset) [5]: 5 hours - 19 months | Hepatotoxicity (moderate) [6]: 5 | Hepatotoxicity (acute) [17]: 12 | Hepatotoxicity (cytolytic) [7]: 8 | Hepatotoxicity (choleostasis) [8]: 0 | Hepatotoxicity (severe hepatitis) ([9]; Liver): 4 | Hepatotoxicity (chronic liver disease) [10]: 0 | Hepatotoxicity (cirrhosis) [11]: 0 | Hepatotoxicity (granulomatous hepatitis) [12]: 0 | Hepatotoxicity (association with vascular disease) [13]: 0 | Hepatotoxicity (steatosis) [14]: 3 | Hepatotoxicity (malignant tumour) [15]: 0 | Hepatotoxicity (benign tumour) [16]: 0

CC(=O)CC(c1ccc([N+](=O)[O-])cc1)c1c(O)c2ccccc2oc1=O (stereo unspecified) [ACENOCOUMAROL]
Hepatotoxicity (moderate) [1]: 0% | Hepatotoxicity (acute) [2]: 0% | Hepatotoxicity (successful reintroduction) [3]: yes | Hepatotoxicity (comment) [4]: RC/PHENPROCOUMON CHOLESTASE_PROLONGEE | Hepatotoxicity (time to onset) [5]: 2 days - 5 years | Hepatotoxicity (moderate) [6]: 2 | Hepatotoxicity (acute) [17]: 8 | Hepatotoxicity (cytolytic) [7]: 3 | Hepatotoxicity (choleostasis) [8]: 6 | Hepatotoxicity (severe hepatitis) [9]: 0 | Hepatotoxicity (chronic liver disease) [10]: 1 | Hepatotoxicity (cirrhosis) [11]: 0 | Hepatotoxicity (granulomatous hepatitis) [12]: 0 | Hepatotoxicity (association with vascular disease) [13]: 0 | Hepatotoxicity (steatosis) [14]: 0 | Hepatotoxicity (malignant tumour) [15]: 0 | Hepatotoxicity (benign tumour) [16]: 0

CCN(CCCc1ccccc1)CCCc1ccccc1 [ALVERINE]
Hepatotoxicity (moderate) [1]: 0% | Hepatotoxicity (acute) [2]: 0% | Hepatotoxicity (successful reintroduction) [3]: yes | Hepatotoxicity (comment) [4]: AC_ANTI-N | Hepatotoxicity (time to onset) [5]: 4 days - 40 days | Hepatotoxicity (moderate) [6]: 0 | Hepatotoxicity (acute) [17]: 2 | Hepatotoxicity (cytolytic) [7]: 2 | Hepatotoxicity (choleostasis) [8]: 0 | Hepatotoxicity (severe hepatitis) [9]: 0 | Hepatotoxicity (chronic liver disease) [10]: 0 | Hepatotoxicity (cirrhosis) [11]: 0 | Hepatotoxicity (granulomatous hepatitis) [12]: 0 | Hepatotoxicity (association with vascular disease) [13]: 0 | Hepatotoxicity (steatosis) [14]: 0 | Hepatotoxicity (malignant tumour) [15]: 0 | Hepatotoxicity (benign tumour) [16]: 0

CC(NC(C)(C)C)C(=O)c1cccc(Cl)c1 (stereo unspecified) [BUPROPION]
Hepatotoxicity (moderate) ([1]; Liver): 0% | Hepatotoxicity (acute) ([2]; Liver): 0% | Hepatotoxicity (successful reintroduction) [3]: yes | Hepatotoxicity (comment) [4]: PERICHOLANGITE | Hepatotoxicity (time to onset) [5]: 4 days - 80 days | Hepatotoxicity (moderate) [6]: 1 | Hepatotoxicity (acute) [17]: 4 | Hepatotoxicity (cytolytic) [7]: 4 | Hepatotoxicity (choleostasis) [8]: 2 | Hepatotoxicity (severe hepatitis) ([9]; Liver): 1 | Hepatotoxicity (chronic liver disease) [10]: 0 | Hepatotoxicity (cirrhosis) [11]: 0 | Hepatotoxicity (granulomatous hepatitis) [12]: 0 | Hepatotoxicity (association with vascular disease) [13]: 0 | Hepatotoxicity (steatosis) [14]: 0 | Hepatotoxicity (malignant tumour) [15]: 0 | Hepatotoxicity (benign tumour) [16]: 0
